The results in this text go back to patent US7105529B2, “Substituted oxindole derivatives as protein tyrosine and as protein serine/threonine kinase inhibitors and compositions and methods of treating chemotherapy and radiation therapy side effects” (SmithKline Beecham Corporation, priority 1997, dated 2006).

Assay [1] has as its system MDA-MB468 (human breast carcinoma cell line). The experiment in a line: MTT assay, MDA MB468. It is filed as cell-based. How it is done:
Compounds are tested for their ability to inhibit cell proliferation and cell viability. The metabolic conversion of 3-(4,5-dimethylthiazol-2-yl)-2,5-diphenyltetrazolium bromide (MTT, Sigma #M2128) to a reduced form is a commonly used measure of cellular viability. Following is the procedure: Cells are maintained in 75 cm^2 tissue culture flasks until ready for use. The cells are grown and plated for the assay in Dulbecco's modified Eagle's media (DMEM) containing 10% fetal bovine serum. For example, the following cell lines can be used: a) human foreskin fibroblasts (HFF); b) HT29 (human colon carcinoma cell line); c) MDA-MB468 (human breast carcinoma cell line); d) RKO (human colon adenocarcinoma cell line); e) SW620 (human colon carcinoma cell line); f A549 (human lung carcinoma cell line); and g) MIA PACA (human pancreatic carcinoma cell line). Cells are maintained at 37° C. in 10% CO2, 90% humidified air. Cells are plated in 96-well tissue culture plates at the densities listed below. 100 μL of cell suspension is added to each well of the 96-well plate except the top row of the plate which contains no cells and serves as a reference for the spectrophotometer. [table] […] Quantitation of metabolic reduction of MTT in each plate is performed by reading optical density at 570 nm wavelength on a Molecular Devices UVmax microplate reader.
Background: Tetrazolium assays rely on reduction of a dye to a coloured formazan, in cell work by metabolically active cells.

Assay [2] addresses CDK1 (Homo sapiens, UniProt P06493). Description: CDK1 substrate phosphorylation assay. It is filed as biochemical. How it is done:
Cyclin dependent protein kinase assays utilized the peptides Biotin-aminohexyl-[…] and Biotin-aminohexyl-[…]-NH2 as phosphoryl group acceptors. CDK1 and CDK2 were both expressed utilizing a baculovirus expression system and were partially purified to comprise 20–80% of total protein, with no detectable competing reactions present. Typically, assays were performed by incubating either enzyme (0.2–10 nM), with and without inhibitor, one of the two peptide substrates (1–10 nM), [γ-^32P]ATP (1–20 nM), and 10–20 mM Mg^2+ for periods of time generally within the range 10–120 min. Reactions were terminated with 0.2–2 volumes of either 20% acetic acid or 50–100 mM EDTA buffered to pH 7 (substrate consumption <20%). The buffer employed in enzyme assays was either 30 mM HEPES 7.4 containing 0.15 M NaCl and 5% DMSO, the buffer 50 mM MOPS 7.0 containing 0.15 M NaCl and 5% DMSO, or the buffer 100 mM HEPES pH 7.5 containing 0.1 mg/mL BSA and 5% DMSO. Inhibitors were diluted in 100% DMSO prior to addition into the assay. […]

The target of assay [3] is VEGFR-2 (Homo sapiens, UniProt P35968). Description: VEGFR-2 kinase assay. The class given is biochemical. Conditions: read-out: VEGFR2 (IC50).
VEGFR-2, sequence (P35968 834-1162 limits assumed): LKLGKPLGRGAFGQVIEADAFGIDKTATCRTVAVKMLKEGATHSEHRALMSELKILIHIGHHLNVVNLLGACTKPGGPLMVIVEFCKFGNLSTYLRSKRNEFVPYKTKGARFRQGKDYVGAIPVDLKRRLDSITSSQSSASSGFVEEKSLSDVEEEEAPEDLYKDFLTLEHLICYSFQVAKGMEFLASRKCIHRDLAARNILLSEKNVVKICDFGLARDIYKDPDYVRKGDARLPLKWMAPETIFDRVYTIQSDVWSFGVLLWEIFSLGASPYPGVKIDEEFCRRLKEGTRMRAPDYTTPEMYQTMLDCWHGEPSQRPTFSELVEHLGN
Method: The kinase domain of the enzyme was purified to homogeneity from a baculovirus expression system. The enzyme was preactivated on ice for 15 min in the presence of 100 μM ATP and 20 mM MgCl2, and stored at −80° C. until needed for assay. The activated enzyme was diluted to 0.4 nM into a 60 μl reaction containing 100 mM HEPES, pH 7.5, 5 μM ATP, 10 mM MgCl2, 5 μM peptide, 0.1 mM DTT, 0.05 mg/ml BSA, and an inhibitor at varying concentrations. The controls were reactions in the presence (negative controls) or absence (positive controls) of 50 mM EDTA. Reactions were incubated for 30 min at room temperature, and then quenched by the addition of EDTA to 60 mM in 210 μl. The quenched samples (190 μl) were transferred to a neutravidin-coated plate (Pierce) and incubated at room temperature for 40 min to allow biotinylated peptide to bind to the neutravidin. The unbound components of the reaction were removed by washing with a plate washer, then 200 μl HRP-PY20 anti-phosphotyrosine antibody conjugate was added to each well. After incubation for 40 min, the plate was washed to remove any unbound anitbody. A HRP substrate, K-blue (Neogen) was added and the reaction was quenched with Red Stop (Neogen) after 20 min. The absorbance of the wells was read at A650 in a plate reader. IC50 values were obtained by fitting raw data to A650=VMAX*(1−[I]/IC50+[I])))+b, where b is background.

CDK1, sequence (P06493 whole entry): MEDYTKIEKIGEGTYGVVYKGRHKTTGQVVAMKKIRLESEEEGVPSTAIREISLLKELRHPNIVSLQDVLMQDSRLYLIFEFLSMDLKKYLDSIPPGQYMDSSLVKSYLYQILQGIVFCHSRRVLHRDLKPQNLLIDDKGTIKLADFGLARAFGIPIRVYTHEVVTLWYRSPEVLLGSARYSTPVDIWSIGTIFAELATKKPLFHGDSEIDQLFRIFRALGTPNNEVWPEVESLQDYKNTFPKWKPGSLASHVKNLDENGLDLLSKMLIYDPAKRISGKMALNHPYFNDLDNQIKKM
CDK1, sequence (P14635 whole entry partner): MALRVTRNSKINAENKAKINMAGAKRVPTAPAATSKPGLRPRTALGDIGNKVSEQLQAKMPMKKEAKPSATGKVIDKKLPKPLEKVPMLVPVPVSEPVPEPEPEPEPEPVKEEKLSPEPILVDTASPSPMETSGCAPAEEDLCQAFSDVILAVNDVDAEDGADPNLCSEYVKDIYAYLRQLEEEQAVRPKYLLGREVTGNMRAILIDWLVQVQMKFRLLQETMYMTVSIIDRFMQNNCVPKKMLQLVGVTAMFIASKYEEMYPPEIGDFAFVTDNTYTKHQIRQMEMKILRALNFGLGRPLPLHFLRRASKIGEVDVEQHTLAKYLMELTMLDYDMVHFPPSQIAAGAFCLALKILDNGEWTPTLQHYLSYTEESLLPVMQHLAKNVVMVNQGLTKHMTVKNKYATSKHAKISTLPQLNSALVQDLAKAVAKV

Take `COC(=O)c1ccc2c(c1)/C(=C/Nc1ccc(S(N)(=O)=O)cc1)C(=O)N2` [Example 27]: the IC50 in assay [1] (Homo sapiens, MDA-MB-468, 72 h) lay within 1.1 to 5 µM.

For the compound `NS(=O)(=O)c1ccc(NN=C2C(=O)Nc3ccc(-c4cnco4)cc32)cc1` [Example 36], the IC50 in assay [2] is 0.001 to 0.01 µM; in assay [3], > 0.1 µM. Turning to `O=C1Nc2ccc3ncsc3c2C1=CNc1ccc(S(=O)(=O)NCc2ccncc2)cc1` [Example 104, 4-[(7-Oxo-6,7-dihydro-1-thia-3,6-diaza-as-indacen-8-ylidenemethyl)amino]-N-pyridinyl-4-yl-methyl benzenesulfonamide], the IC50 in assay [2] was 0.011 to 0.05 µM; in assay [1] (72 h), 1.1 to 5 µM.

Usually IC50 stands for the concentration that gives 50% inhibition.
